Assays:
Format in all cases: in vivo
Honeycrisp apples [1] = test: Apple coloration in Honeycrisp variety (Example 1), percent red pixel area; details: 43 hours post spray; for Average % Red Pixel Area: 50 ppm foliar spray; for Fold Change From control: 50 ppm
Procedure: 10 sets of unripened green apples, Honeycrisp variety, harvested three weeks before the normal harvest date, were each foliar sprayed with either 1) 0.05% of a mixture of polyoxyethylene-polyoxypropylene polymer, propylene glycol, 2-butoxyethanol (Regulaid®, Regulaid is a registered trademark of Kalo, Inc.) as a control, 2) 50 parts per million (“ppm”) jasmonic acid, 3) 50 ppm ACC or 4) a mixture of 50 ppm jasmonic acid and 50 ppm ACC. 43 hours post spray application percent red pixel area (shaded) was measured. Percent red pixel area is an indication of the coloration of the apple fruit.
(§1) To determine if the mixture provided unexpected results, the observed combined efficacy (“OCE”) was divided by the expected combined efficacy (“ECE”) wherein the ECE is calculated by the Abbott method: […]
(§2) wherein ECE is the expected combined efficacy and in which A and B are the fold change from control given by the single active ingredients. If the ratio between the OCE of the mixture and the ECE of the mixture is greater than 1, then greater than expected interactions are present in the mixture. (Gisi, Synergistic Interaction of Fungicides in Mixtures, The American Phytopathological Society, 86:11, 1273-1279, 1996).

Gala apples [2] = test: Apple coloration in Gala variety (Example 2, Table 2); details: 34 hours post spray; for Average % Red Pixel Area: 300 ppm foliar spray; for Fold Change From control: 300 ppm
Procedure: as §1, §2
(§3) 10 sets of unripened apples, Gala variety, harvested three weeks before the normal harvest date, were each foliar sprayed with either 1) 0.05% Regulaid® as a control, 2) 300 ppm jasmonic acid, 3) 300 ppm ACC or 4) a mixture of 300 ppm jasmonic acid and 300 ppm ACC. 34 hours post spray application percent red pixel area (shaded) was measured. Additionally, this study was repeated while adding [S]-trans-2-Amino-4-(2-aminoethoxy)-3-butenoic acid hydrochloride (Retain®, Retain is a registered trademark of Valent BioSciences LLC) to the application.

Gala apples [3] = test: Apple coloration in Gala variety, study repeated with Retain added (Example 2, Table 3); details: 300 ppm, 34 hours post spray; for Average % Red Pixel Area: Retain added to the application; for Fold Change From control: Retain added
Procedure: as §1, §2, §3

Imperial Gala apples = test: Apple coloration in Imperial Gala variety (Example 3); details: 34 hours post spray
Procedure: as §1, §2
10 sets of unripened apples, Imperial Gala variety, harvested three weeks before the normal harvest date, were each foliar sprayed with either 1) 0.05% Regulaid® as a control, 2) 50 ppm jasmonic acid, 3) 300 ppm jasmonic acid, 4) 50 ppm ACC, 5) 300 ppm ACC, 6) a mixture of 50 ppm jasmonic acid and 50 ppm ACC or 7) a mixture of 300 ppm jasmonic acid and 300 ppm ACC. 34 hours post spray application percent red pixel area (shaded) was measured.

Ultima Gala apples = test: Apple coloration in Ultima Gala variety (Example 4); details: 34 hours post spray
Honeycrisp apples [4] = test: Apple coloration in Honeycrisp variety (Example 5); details: 34 hours post spray
Procedure: as §1, §2
(§4) 10 sets of unripened apples, Honeycrisp variety, harvested three weeks before the normal harvest date, were each foliar sprayed with either 1) 0.05% Regulaid® as a control, 2) 50 ppm jasmonic acid, 3) 300 ppm jasmonic acid, 4) 50 ppm ACC, 5) 300 ppm ACC, 6) a mixture of 50 ppm jasmonic acid and 50 ppm ACC, 7) a mixture of 50 ppm jasmonic acid and 300 ppm ACC, 8) a mixture of 300 ppm jasmonic acid and 50 ppm ACC or 9) a mixture of 300 ppm jasmonic acid and 300 ppm ACC. 34 hours post spray application percent red pixel area (shaded) was measured.

Fuji apples = test: Apple coloration in Fuji variety (Example 6); details: 34 hours post spray
Procedure: as §1, §2
as §4, with “Fuji” for “Honeycrisp”

Red Aztec Fuji apples = test: Apple coloration in Red Aztec Fuji variety (Example 7); details: 34 hours post spray
Procedure: as §1, §2
as §4, with “Red Aztec Fuji” for “Honeycrisp”

Aztec Fuji apples = test: Apple coloration in Aztec Fuji variety (Example 8); details: 34 hours post spray
Procedure: as §1, §2
as §4, with “Aztec Fuji” for “Honeycrisp”

Evercrisp apples = test: Apple coloration in Evercrisp variety (Example 9); details: 34 hours post spray
Cripps Pink apples [5] = test: Apple coloration in Cripps Pink variety (Example 10); details: Cripps Pink (Example 10), 34 hours post spray
Procedure: as §1, §2
as §4, with “Cripps Pink” for “Honeycrisp”

Cripps Pink apples [6] = test: Apple coloration in Cripps Pink variety, repeat (Example 11); details: Cripps Pink (Example 11, repeat), 34 hours post spray
Procedure: as §1, §2
as §4, with “The experiment detailed in Example 10 was repeated. Specifically, 10” for “10”, “Cripps Pink” for “Honeycrisp”, “measured. The OCE/ECE ratio formula was modified to ECE=A+B−(A*B) to account for reduced average % red pixel area over control for each of the ACC applications.” for “measured.”

Pink Lady apples [7] = test: Apple coloration in Pink Lady variety (Example 12); details: 34 hours post spray
Procedure: as §1, §2
as §4, with “Pink Lady” for “Honeycrisp”, “measured. The OCE/ECE ratio formula was modified to ECE=A+B−(A*B) to account for reduced average % red pixel area over control for each of the ACC applications.” for “measured.”

Pink Lady apples [8] = test: Apple coloration in Pink Lady variety, 100 ppm (Example 13); details: 34 hours post spray
Procedure: as §1, §2
10 sets of unripened apples, Pink Lady variety, harvested three weeks before the normal harvest date, were each foliar sprayed with either 1) 0.05% Regulaid® as a control, 2) 100 ppm jasmonic acid, 3) 100 ppm ACC and 4) a mixture of 100 ppm jasmonic acid and 100 ppm ACC. 34 hours post spray application percent red pixel area (shaded) was measured. The OCE/ECE ratio formula was modified to ECE=A+B−(A*B) to account for reduced average % red pixel area over control for each of the ACC applications.

NC1(C(=O)O)CC1 [ACC, 1-amino-1-cyclopropanecarboxylic acid]
Average % Red Pixel Area (Honeycrisp apples [1]): 4.74%
Fold Change From control (Honeycrisp apples [1]): 1.18
Average % Red Pixel Area (Gala apples [2]): 3.63%
Fold Change From control (Gala apples [2]): 0.92
Average % Red Pixel Area (Gala apples [3]): 4.71%
Fold Change From control (Gala apples [3]): 1.03
Average % Red Pixel Area (Imperial Gala apples; 50 ppm): 7.02%
Fold Change From control (Imperial Gala apples; 50 ppm): 0.03
Average % Red Pixel Area (Imperial Gala apples; 300 ppm): 4.66%
Fold Change From control (Imperial Gala apples; 300 ppm): −0.31
Average % Red Pixel Area (Ultima Gala apples; 50 ppm): 10.44%
Fold Change From control (Ultima Gala apples; 50 ppm): −0.06
Average % Red Pixel Area (Ultima Gala apples; 300 ppm): 14.87%
Fold Change From control (Ultima Gala apples; 300 ppm): 0.34
Average % Red Pixel Area (Honeycrisp apples [4]; 50 ppm): 4.70%
Fold Change From control (Honeycrisp apples [4]; 50 ppm): −0.49
Average % Red Pixel Area (Honeycrisp apples [4]; 300 ppm): 3.80%
Fold Change From control (Honeycrisp apples [4]; 300 ppm): 0.59
Average % Red Pixel Area (Fuji apples; 50 ppm): 20.61%
Fold Change From control (Fuji apples; 50 ppm): 0.02
Average % Red Pixel Area (Fuji apples; 300 ppm): 25.47%
Fold Change From control (Fuji apples; 300 ppm): 0.26
Average % Red Pixel Area (Red Aztec Fuji apples; 50 ppm): 17.08%
Fold Change From control (Red Aztec Fuji apples; 50 ppm): −0.04
Average % Red Pixel Area (Red Aztec Fuji apples; 300 ppm): 15.84%
Fold Change From control (Red Aztec Fuji apples; 300 ppm): −0.11
Average % Red Pixel Area (Aztec Fuji apples; 50 ppm): 35.07%
Fold Change From control (Aztec Fuji apples; 50 ppm): 0.10
Average % Red Pixel Area (Aztec Fuji apples; 300 ppm): 29.25%
Fold Change From control (Aztec Fuji apples; 300 ppm): −0.09
Average % Red Pixel Area (Evercrisp apples; 50 ppm): 46.78%
Fold Change From control (Evercrisp apples; 50 ppm): 1.48
Average % Red Pixel Area (Evercrisp apples; 300 ppm): 72.16%
Fold Change From control (Evercrisp apples; 300 ppm): 2.82
Average % Red Pixel Area (Cripps Pink apples [5]; 50 ppm): 54.12%
Fold Change From control (Cripps Pink apples [5]; 50 ppm): 6.67
Average % Red Pixel Area (Cripps Pink apples [5]; 300 ppm): 57.97%
Fold Change From control (Cripps Pink apples [5]; 300 ppm): 7.15
Average % Red Pixel Area (Cripps Pink apples [6]; 50 ppm): 34.68%
Fold Change From control (Cripps Pink apples [6]; 50 ppm): 0.70
Average % Red Pixel Area (Cripps Pink apples [6]; 300 ppm): 48.78%
Fold Change From control (Cripps Pink apples [6]; 300 ppm): 0.99
Average % Red Pixel Area (Pink Lady apples [7]; 50 ppm): 24.63%
Fold Change From control (Pink Lady apples [7]; 50 ppm): 0.68
Average % Red Pixel Area (Pink Lady apples [7]; 300 ppm): 28.83%
Fold Change From control (Pink Lady apples [7]; 300 ppm): 0.80
Average % Red Pixel Area (Pink Lady apples [8]): 19.32%
Fold Change From control (Pink Lady apples [8]): 0.80

CC/C=C\C[C@H]1C(=O)CC[C@@H]1CC(=O)O [jasmonic acid]
Average % Red Pixel Area (Honeycrisp apples [1]): 38.66%
Fold Change From control (Honeycrisp apples [1]): 9.64
Average % Red Pixel Area (Gala apples [2]): 61.5%
Fold Change From control (Gala apples [2]): 15.53
Average % Red Pixel Area (Gala apples [3]): 24.85%
Fold Change From control (Gala apples [3]): 5.41
Average % Red Pixel Area (Imperial Gala apples; 50 ppm): 30.90%
Fold Change From control (Imperial Gala apples; 50 ppm): 3.54
Average % Red Pixel Area (Imperial Gala apples; 300 ppm): 45.18%
Fold Change From control (Imperial Gala apples; 300 ppm): 5.65
Average % Red Pixel Area (Ultima Gala apples; 50 ppm): 43.46%
Fold Change From control (Ultima Gala apples; 50 ppm): 2.91
Average % Red Pixel Area (Ultima Gala apples; 300 ppm): 63.02%
Fold Change From control (Ultima Gala apples; 300 ppm): 4.67
Average % Red Pixel Area (Honeycrisp apples [4]; 50 ppm): 5.00%
Fold Change From control (Honeycrisp apples [4]; 50 ppm): −0.46
Average % Red Pixel Area (Honeycrisp apples [4]; 300 ppm): 31.37%
Fold Change From control (Honeycrisp apples [4]; 300 ppm): 2.42
Average % Red Pixel Area (Fuji apples; 50 ppm): 24.55%
Fold Change From control (Fuji apples; 50 ppm): 0.21
Average % Red Pixel Area (Fuji apples; 300 ppm): 60.29%
Fold Change From control (Fuji apples; 300 ppm): 1.98
Average % Red Pixel Area (Red Aztec Fuji apples; 50 ppm): 22.53%
Fold Change From control (Red Aztec Fuji apples; 50 ppm): 0.26
Average % Red Pixel Area (Red Aztec Fuji apples; 300 ppm): 75.2%
Fold Change From control (Red Aztec Fuji apples; 300 ppm): 3.21
Average % Red Pixel Area (Aztec Fuji apples; 50 ppm): 38.27%
Fold Change From control (Aztec Fuji apples; 50 ppm): 0.20
Average % Red Pixel Area (Aztec Fuji apples; 300 ppm): 71.99%
Fold Change From control (Aztec Fuji apples; 300 ppm): 1.25
Average % Red Pixel Area (Evercrisp apples; 50 ppm): 40.67%
Fold Change From control (Evercrisp apples; 50 ppm): 1.15
Average % Red Pixel Area (Evercrisp apples; 300 ppm): 70.81%
Fold Change From control (Evercrisp apples; 300 ppm): 2.75
Average % Red Pixel Area (Cripps Pink apples [5]; 50 ppm): 30.79%
Fold Change From control (Cripps Pink apples [5]; 50 ppm): 3.80
Average % Red Pixel Area (Cripps Pink apples [5]; 300 ppm): 79.81%
Fold Change From control (Cripps Pink apples [5]; 300 ppm): 9.84
Average % Red Pixel Area (Cripps Pink apples [6]; 50 ppm): 63.91%
Fold Change From control (Cripps Pink apples [6]; 50 ppm): 1.30
Average % Red Pixel Area (Cripps Pink apples [6]; 300 ppm): 85.52%
Fold Change From control (Cripps Pink apples [6]; 300 ppm): 1.74
Average % Red Pixel Area (Pink Lady apples [7]; 50 ppm): 68.55%
Fold Change From control (Pink Lady apples [7]; 50 ppm): 1.91
Average % Red Pixel Area (Pink Lady apples [7]; 300 ppm): 76.7%
Fold Change From control (Pink Lady apples [7]; 300 ppm): 2.13
Average % Red Pixel Area (Pink Lady apples [8]): 49.9%
Fold Change From control (Pink Lady apples [8]): 2.06
